Reference: patent US20080152632A1, “Promoter-reporter cells for determining drug metabolism, drug interactions, and the effects of allotype variation” (Roslin Institute, priority 2005, published 2008)

Test system: AFP promoter in hepatocyte lineage cells
Assay: AFP-eGFP reporter signaling in hepatocyte lineage cells generated using Activin
Format: cell-based, human
Settings: H1-LZ-hAFP-eGFP derived cells; factor in HCM medium with HGF and EGF (1 μM dexamethazone from Day 11; 25 ng/mL Oncostatin M from Day 20)
Method: The H1-LZ-hAFP-eGFP line of hES cells (Example 2) were expanded in mEF conditioned medium supplemented with 8 ng/mL bFGF on Matrigel™-coated plates. Once they reached 90-95% confluence, the cells were fed and cultured for one day (designated Day 1) with RPMI 1640 containing B27 supplement without vitamin A (GibcoBRL/Invitrogen # 12587-010), 1 mM sodium butyrate (Sigma Cat. no. B5887), and 100 ng/mL Activin A (R&D Systems #338-AC-025), and then for another two days in the same medium except having 0.5 mM sodium butyrate (Stage I). There was substantial cell death, with the remaining cells now having mesenchymal cell morphology, and some forming rosettes.
Starting on Day 4, the cells were fed daily with Knockout DMEM (GibcoBRL/Invitrogen #10829-018) containing 20% Knockout Serum Replacement (GibcoBRL/Invitrogen #10828-028), 2 mM L-glutamine, 1×nonessential amino acids, 0.1 mM β-mercaptoethanol, and 1% DMSO (Stage II). […] Starting on Day 20, the cells were fed on alternate days with HCM Bullet Kit, supplemented with 10 ng/mL human HGF, 10 ng/mL human EGF, and 25 ng/mL human Oncostatin M (Stage V).
In response to the medium components introduced on Day 11, about 60-70% of the cells began expressing eGFP, peaking by Day 19 or 20. Following the change of medium components on […], eGFP expression gradually disappeared.

Q: `C[C@@H]1C[C@H]2[C@@H]3CCC4=CC(=O)C=C[C@]4(C)[C@@]3(F)[C@@H](O)C[C@]2(C)[C@@]1(O)C(=O)CO` [dexamethazone] was tested. Which AFP-eGFP reporter expression did it give?
A: The AFP-eGFP reporter expression was “expressed”.

B1: Oncostatin M: human Oncostatin M, late differentiation factor (protein, UniProt P13725 26-221, looked up)
Oncostatin-M: AAIGSCSKEYRVLLGQLQKQTDLMQDTSRLLDPYIRIQGLDVPKLREHCRERPGAFPSEETLRGLGRRGFLQTLNATLGCVLHRLADLEQRLPKAQDLERSGLNIEDLEKLQMARPNILGLRNNIYCMAQLLDNSDTAEPTKAGRGASQPPTPTPASDAFQRKLEGCRFLHGYHRFMHSVGRVFSKWGESPNRSRR
Q: For B1, which AFP-eGFP reporter expression is on record?
A: The AFP-eGFP reporter expression was “decreased”.
